The text below walks through data of patent US20140120087A1, “TRIAZOLOPYRIDINES” (BAYER INTELLECTUAL PROPERTY GMBH, priority 2011, published 2014).

Assay [1] concerns the target T1, Mps-1 kinase (Homo sapiens, UniProt P33981).
T1 sequence (P33981 1-857): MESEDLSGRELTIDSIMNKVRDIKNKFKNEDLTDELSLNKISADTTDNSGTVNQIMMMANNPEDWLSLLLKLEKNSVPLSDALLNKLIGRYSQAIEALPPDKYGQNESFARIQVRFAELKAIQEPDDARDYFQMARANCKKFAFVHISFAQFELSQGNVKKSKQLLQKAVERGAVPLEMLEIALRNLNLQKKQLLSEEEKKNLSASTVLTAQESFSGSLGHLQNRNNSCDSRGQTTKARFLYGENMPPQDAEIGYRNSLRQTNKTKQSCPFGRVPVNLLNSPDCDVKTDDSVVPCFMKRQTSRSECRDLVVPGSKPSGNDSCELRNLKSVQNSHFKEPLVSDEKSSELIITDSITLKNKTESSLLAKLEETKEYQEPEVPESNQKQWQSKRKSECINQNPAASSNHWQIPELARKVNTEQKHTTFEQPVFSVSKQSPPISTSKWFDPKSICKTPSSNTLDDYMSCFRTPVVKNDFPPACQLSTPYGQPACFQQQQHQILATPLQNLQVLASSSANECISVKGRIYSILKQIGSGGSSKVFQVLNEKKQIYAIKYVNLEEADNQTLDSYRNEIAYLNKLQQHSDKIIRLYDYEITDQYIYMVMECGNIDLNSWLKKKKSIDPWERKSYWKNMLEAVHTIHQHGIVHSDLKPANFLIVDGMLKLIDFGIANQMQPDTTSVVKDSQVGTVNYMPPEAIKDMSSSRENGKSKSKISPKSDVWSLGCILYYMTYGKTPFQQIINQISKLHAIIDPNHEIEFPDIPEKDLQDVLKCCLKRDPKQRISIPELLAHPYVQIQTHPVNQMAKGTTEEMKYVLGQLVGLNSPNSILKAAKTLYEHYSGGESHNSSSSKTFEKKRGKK
Kind of assay: Mps-1 kinase assay with 2 mM ATP (TR-FRET). (In general: In TR-FRET formats the signal depends on donor and acceptor labels being close together.)

Assay [2] addresses T1, Mps-1 kinase. Nature of the assay: Mps-1 kinase assay with 10 μM ATP (TR-FRET).

As to `C[S@@+]([O-])c1ccc(Nc2nc3ccc(-c4ccc(NC(=O)Cc5ccc(F)cc5)cc4)cn3n2)c(OCC(F)(F)F)c1` (stereo in doubt) [Example 12.24, 2-(4-fluorophenyl)-N-[4-(2-{[4-(methylsulfinyl)-2-(2,2,2-trifluoroethoxy)-phenyl]amino}[1,2,4]-triazolo[1,5-a]pyridin-6-yl)phenyl]acetamide], the IC50 against Mps-1 kinase [1] and at Mps-1 kinase [2] was ≤ 1 nM in each case.

As to `COc1cc(S(C)(=N)=O)ccc1Nc1nc2ccc(-c3ccc(C(=O)NCc4ccc(F)cc4)cc3)cn2n1` (stereo not drawn) [Example 12.83, N-(4-fluorobenzyl)-4-(2-{[2-methoxy-4-(S-methylsulfonimidoyl)phenyl]-amino}[1,2,4]triazolo[1,5-α]pyridin-6-yl)benzamide], the IC50 – broadly, the concentration at which inhibition is half-maximal – at Mps-1 kinase [1] was 1.8 nM; against Mps-1 kinase [2], ≤ 1 nM.

As to `Cc1cc(S(C)(=O)=O)ccc1Nc1nc2ccc(-c3ccc(C(=O)NCc4ccc(F)cc4)cc3)cn2n1` [Example 12.68, N-(4-fluorobenzyl)-4-(2-{[2-methyl-4-(methylsulfonyl)-phenyl]amino}[1,2,4]triazolo [1,5-a]pyridin-6-yl)-benzamide], the IC50 was 1.9 nM against Mps-1 kinase [1] and ≤ 1 nM on Mps-1 kinase [2].

Take `COc1cc(C(=O)NCCN(C)C)ccc1Nc1nc2ccc(-c3ccc(NC(=O)Cc4ccc(F)cc4)cc3)cn2n1` [Example 12.10, N-[2-(dimethylamino)ethyl]-4-{[6-(4-{[(4-fluorophenyl)-acetyl]amino}phenyl)[1,2,4]triazolo[1,5-a]pyridin-2-yl]amino}-3-methoxy-benzamide]: the IC50 against Mps-1 kinase [1] and against Mps-1 kinase [2] was ≤ 1 nM each time.

Consider `CCS(=O)(=O)c1ccc(Nc2nc3ccc(-c4ccc(NC(=O)Cc5ccc(F)cc5)cc4)cn3n2)c(OC(F)F)c1` [Example 01.36, N-[4-(2-{[2-(difluoromethoxy)-4-(ethylsulfonyl)phenyl]amino}[1,2,4]-triazolo[1,5-α]pyridin-6-yl)phenyl]-2-(4-fluorophenyl)acetamide], for which the IC50 at Mps-1 kinase [1] and against Mps-1 kinase [2] was ≤ 1 nM throughout.

As to `COc1cc(S(C)(=O)=O)ccc1Nc1nc2ccc(-c3ccc(C(=O)NCc4ccc(C)cc4)cc3)cn2n1` [Example 12.76, 4-(2-{[2-methoxy-4-(methyl-sulfonyl)phenyl]amino}-[1,2,4]triazolo[1,5-a]pyridin-6-yl)-N-(4-methyl-benzyl)benzamide], the values for the IC50 against Mps-1 kinase [1] and at Mps-1 kinase [2] were 7.4 nM and ≤ 1 nM, respectively.

For `Cc1cc(-c2ccc3nc(Nc4ccc(S(C)(=O)=O)cc4OCC(F)(F)F)nn3c2)ccc1C(=O)NCc1ccc(F)cc1F` [Example 12.80, N-(2,4-difluorobenzyl)-2-methyl-4-(2-{[4-(methyl-sulfonyl)-2-(2,2,2-trifluoro-ethoxy)phenyl]amino}[1,2,4]triazolo[1,5-a]pyridin-6-yl)-benzamide], the IC50 at Mps-1 kinase [1] is 18 nM; at Mps-1 kinase [2], ≤ 1 nM.

With `COc1cc(S(C)(=O)=O)ccc1Nc1nc2ccc(-c3ccc(C(=O)NCc4ccc(F)cc4)c(OC)c3)cn2n1` [Example 09.1, N-(4-fluorobenzyl)-2-methoxy-4-(2-{[2-methoxy-4-(methylsulfonyl)phenyl]-amino}[1,2,4]triazolo[1,5-α]pyridin-6-yl)benzamide], the IC50 on Mps-1 kinase [1] was 19 nM; against Mps-1 kinase [2], ≤ 1 nM.

In the case of `CC(C)S(=O)(=O)c1ccc(Nc2nc3ccc(-c4ccc(NC(=O)Cc5ccc(F)cc5)cc4)cn3n2)c(OC(F)F)c1` [Example 12.26, N-[4-(2-{[2-(difluoro-methoxy)-4-(propan-2-ylsulfonyl)phenyl]amino}-[1,2,4]triazolo[1,5-a]pyridin-6-yl)phenyl]-2-(4-fluorophenyl)acetamide], the results for the IC50 on Mps-1 kinase [1] and on Mps-1 kinase [2] were 1.2 nM and ≤ 1 nM, respectively.

As for `COc1cc(S(C)(=O)=O)ccc1Nc1nc2ccc(-c3ccc(NC(=O)Cc4ccc(Cl)cc4)cc3)cn2n1` [Example 12.41, 2-(4-chlorophenyl)-N-[4-(2-{[2-methoxy-4-(methyl-sulfonyl)phenyl]amino}-[1,2,4]triazolo[1,5-a]pyridin-6-yl)phenyl]acetamide], the IC50 is 7.2 nM against Mps-1 kinase [1] and ≤ 1 nM against Mps-1 kinase [2].

Take `COc1ccc(Nc2nc3ccc(-c4ccc(NC(=O)Cc5ccc(F)cc5)cc4)cn3n2)c(OC)c1` [Example 12.18, N-(4-{2-[(2,4-dimethoxy-phenyl)amino][1,2,4]-triazolo[1,5-a]pyridin-6-yl}phenyl)-2-(4-fluoro-phenyl)acetamide]: the IC50 is 1.5 nM at Mps-1 kinase [1] and ≤ 1 nM against Mps-1 kinase [2].

On to `COc1cc(C(N)=O)ccc1Nc1nc2ccc(-c3ccc(C(=O)NCc4ccc(F)cc4)cc3)cn2n1` [Example 12.43, 4-[(6-{4-[(4-fluorobenzyl)-carbamoyl]phenyl}[1,2,4]triazolo [1,5-a]pyridin-2-yl)-amino]-3-methoxy-benzamide], for which the IC50 on Mps-1 kinase [1] and on Mps-1 kinase [2] was ≤ 1 nM in each case.

Take `COc1cc(S(C)(=O)=O)ccc1Nc1nc2ccc(-c3ccc(C(=O)NCc4ccc(Cl)cc4)cc3)cn2n1` [Example 12.73, N-(4-chlorobenzyl)-4-(2-{[2-methoxy-4-(methylsulfonyl)-phenyl]amino}[1,2,4]triazolo [1,5-a]pyridin-6-yl)-benzamide]: the IC50 on Mps-1 kinase [1] was 16 nM; against Mps-1 kinase [2], ≤ 1 nM.

Consider `CCOc1cc(C(=O)N(C)CC)ccc1Nc1nc2ccc(-c3ccc(NC(=O)Cc4ccc(F)cc4)cc3)cn2n1` [Example 12.19, 3-ethoxy-N-ethyl-4-{[6-(4-{[(4-fluorophenyl)acetyl]-amino}phenyl)[1,2,4]-triazolo[1,5-a]pyridin-2-yl]amino}-N-methyl-benzamide], for which the IC50 against Mps-1 kinase [1] and against Mps-1 kinase [2] was ≤ 1 nM each time.

Consider `CNC(=O)c1ccc(Nc2nc3ccc(-c4ccc(NC(=O)Cc5ccc(F)cc5)cc4)cn3n2)c(OC)c1` [Example 01.30, 4-{[6-(4-{[(4-fluorophenyl)acetyl]amino}phenyl)[1,2,4]triazolo[1,5-α]-pyridin-2-yl]amino}-3-methoxy-N-methylbenzamide], for which the IC50 on Mps-1 kinase [1] and at Mps-1 kinase [2] was ≤ 1 nM in each case.

For `COc1cc(C(C)(C)O)ccc1Nc1nc2ccc(-c3ccc(NC(=O)Cc4ccc(F)cc4)cc3)cn2n1` [Example 12.17, 2-(4-fluorophenyl)-N-[4-(2-{[4-(2-hydroxypropan-2-yl)-2-methoxyphenyl]amino}-[1,2,4]triazolo[1,5-a]pyridin-6-yl)phenyl]acetamide], the IC50 at Mps-1 kinase [1] and on Mps-1 kinase [2] was ≤ 1 nM each time.

In the case of `COc1cc(C(=O)NCC(F)(F)F)ccc1Nc1nc2ccc(-c3ccc(C(=O)NCc4ccc(Cl)cc4)cc3)cn2n1` [Example 12.72, 4-[(6-{4-[(4-chlorobenzyl)-carbamoyl]phenyl}[1,2,4]triazolo [1,5-a]pyridin-2-yl)-amino]-3-methoxy-N-(2,2,2-trifluoroethyl)benzamide], the IC50 on Mps-1 kinase [1] was 16 nM; at Mps-1 kinase [2], ≤ 1 nM.

On to `COCCNC(=O)c1ccc(Nc2nc3ccc(-c4ccc(NC(=O)Cc5ccc(F)cc5)cc4)cn3n2)c(OC)c1` [Example 12.01, 4-{[6-(4-{[(4-fluorophenyl)-acetyl]amino}phenyl)[1,2,4]triazolo[1,5-a]pyridin-2-yl]amino}-3-methoxy-N-(2-methoxyethyl)benzamide], for which the IC50 on Mps-1 kinase [1] and against Mps-1 kinase [2] was ≤ 1 nM throughout.

For `COc1cc(C(C)(C)O)ccc1Nc1nc2ccc(-c3ccc(C(=O)NCc4ccc(F)cc4)c(OC)c3)cn2n1` [Example 12.81, N-(4-fluorobenzyl)-4-(2-{[4-(2-hydroxypropan-2-yl)-2-methoxyphenyl]amino}-[1,2,4]triazolo[1,5-a]pyridin-6-yl)-2-methoxybenzamide], the IC50 is 7.3 nM against Mps-1 kinase [1] and ≤ 1 nM against Mps-1 kinase [2].

On to `CS(=O)(=O)c1ccc(Nc2nc3ccc(-c4ccc(C(=O)NCc5ccc(F)cc5)cc4)cn3n2)c(OCC(F)(F)F)c1` [Example 02.27, N-(4-fluorobenzyl)-4-(2-{[4-(methylsulfonyl)-2-(2,2,2-trifluoroethoxy)-phenyl]amino}[1,2,4]triazolo[1,5-α]pyridin-6-yl)benzamide], for which the IC50 on Mps-1 kinase [1] and on Mps-1 kinase [2] was ≤ 1 nM each time.

`Cc1cc(C(N)=O)ccc1Nc1nc2ccc(-c3ccc(NC(=O)Cc4ccc(F)cc4)cc3)cn2n1` [Example 12.28, 4-{[6-(4-{[(4-fluorophenyl)-acetyl]amino}phenyl)[1,2,4]triazolo[1,5-a]pyridin-2-yl]amino}-3-methyl-benzamide]: the half-maximal inhibitory concentration (IC50) on Mps-1 kinase [1] and on Mps-1 kinase [2] was ≤ 1 nM each time.

As for `Cc1cc(C(=O)NCC(F)(F)F)ncc1Nc1nc2ccc(-c3ccc(NC(=O)Cc4ccc(F)cc4)cc3)cn2n1` [Example 12.38, 5-{[6-(4-{[(4-fluorophenyl)-acetyl]amino}phenyl)[1,2,4]triazolo[1,5-a]pyridin-2-yl]amino}-4-methyl-N-(2,2,2-trifluoroethyl)-pyridine-2-carboxamide], the IC50 at Mps-1 kinase [2] was ≤ 1 nM.
